The values below come from patent publication US7772260B2, “Imidazo[2,1-b]-1,3,4-thiadiazole sulfonamides” (Aegera Therapeutics Inc., priority 2001, dated 2010).

“Also recorded” adds a separate entry of the source.

For one data set, the system named is Erk. In words: Erk activity in PC12 cells and sympathetic neurons. The data set is classed as cell-based. The note with it: PC12 cells and primary cultures of sympathetic neurons. The source says:
(§1) Additionally, the Erks protect cultured neurons from a number of insults including neurotrophin withdrawal (Bonni, A., et al., Science, 1999, 286, 1358-1362). […] Compound 1, therefore, protects neurons by activating a subset of NGF-stimulated signaling pathways.

In data set [1] the test system is SCG neurons. In words: cells. The settings on record: Rattus norvegicus, Neuron, 48 h, read-out: IC50, protection of SCG neurons against cisplatin killing.
For the next data set, the target named is CA II (Homo sapiens, UniProt P00918). Description: CA II inhibition. The data set is classed as biochemical. The note with it: read-out: CAII(50). The procedure:
CA II inhabition was measured using the protocol described by Pocker, Y.'Stone, J. Biochemistry 1967, 6, 668.

In data set [2] the test system is SCG neurons. Description: cells. The settings on record: for IC50: Rattus norvegicus, Neuron. The format is cell-based, Sprague Dawley rats.
In data set [3] the test system is human lung carcinoma cells (H460). Description: Co-treatment of H460 cell line with Taxol and compound 1. The data set is classed as cell-based. The settings on record: Taxol™ (50 nM) + compound at 5, 10, 20 uM; Taxol™ and/or cisplatin. The procedure:
H460 and OV2008 cells were plated and incubated for 48 hours. Compound 1 and/or compound 1 and Taxol™ were added. Viability was determined after 24 hours, staining with MTT (Promega).
FIG. 3 illustrates the co-treatment of H460 and OV 2008 cell lines with Taxol™ and compound 1. H460 lung carcinoma and OV2008 ovarian carcinoma cells were treated with Taxol™ (50 nM) and/or Taxol™ (50 nM)+compound 1 (noted as AEG 03482) at levels of 5, 10, and 20 uM.

Another data set concerns Akt. In words: Akt activity in PC12 cells and SCGs. The format is cell-based.
Excerpt: as §1

Data set [4] deals with retinal ganglion (RG) neurons. Description: Optical stroke model. The data set is classed as in vivo, rat. The source says:
Various diseases which result in loss of vision are related to increased inter-ocular pressure and ocular stroke or ischemia. Loss of the retinal ganglion (RG) occur during ischemic insult and in diseases such as diabetes and glaucoma. A model of inter-ocular ischemia involves an invasive increase in ocular pressure which results in the collapse of the central retinal artery. Retinal ischemia is confirmed by whitening of the iris and loss of red reflex. The inter-ocular pressure is normalized after 30 minutes. This procedure is performed on the right eye and the left eye serves as a control. Compound was given either by intra-vitrial injection or via SC injections at 10 mg/kg (see Example 162).
The right eye of each rat was dilated fully using 1% tropacamide and 2% pheylephrine hydrochloride (Alcon Canada). A single drop of 0.5% proparacaine (Alcon) was used as a topical anesthetic. The anterior chamber of the right eye was cannulated with a 30-gauge needle connected to a saline reservoir and a manometer to monitor intraocular pressure. Intraocular pressure was raised to 110 mm Hg by raising the saline reservoir for 60 minutes. This increase in pressure collapses the central retinal artery. […] Optical function after 24 hrs, 28 hrs and 7 days was assessed using ERG measurements and histological staining of the RG layer.

A short description of data set [5]: Acute toxicity studies with compound 1 alone. The format is in vivo. The settings on record: compound alone, 1, 5, and 10 mg/kg for 3 weeks. The procedure: Male Spraugue Dawley rats were treated with 50% HPDC vehicle (veh/veh), compound I dissolved in 50% HPDC at 1, 5, or 10 mg/kg (veh/1, veh/5, veh/10, respectively), or Taxol™ (9 mg/kg)+compound 1 dissolved in 50% HPDC at 1, 5, and 10 mg/kg (Tax/1, Tax/5, Tax/10) according to the dosing regime described in Example 160. Weight measurements were made ever other day.

Data set [6] relates to SCG neurons. In words: Protection of SCG neurons from anti-NGF killing. The data set is classed as cell-based, Sprague Dawley rats. The note with it: Rattus norvegicus, Neuron; anti-NGF antibody, serum and NGF free 48 hours, Alamar Blue; +/−1 uM; read-out: IC(50), rescue from anti-NGF killing of SCG neurons. As for the experimental part:
Neurotrophins are critical to the growth, development, and survival of small fiber neurons of the PNS. SCG neurons are neurons of the PNS that undergo apoptosis upon NGF withdrawal. In a typical experiment SCG neurons are cultured in the presence of NGF, which induces survival and neurite out-growth. After 5 days the NGF is removed by either the addition of anti-NGF polyclonal antibody (Sigma) or by repeated washings (4 times) with NGF free media, resulting in the apoptosis of up to 90% of the neurons after 48 hours, as measured by MTS staining.
After 4 days the cells were treated with anti-NGF antibody (Sigma). At this time compound was added and the cells were maintained serum and NGF free for 48 hours, at which time viability was assessed using Alamar Blue (Medicorp) staining.

The test system of data set [7] is SCG neurons. In words: In vitro protection of SCG neurons from vincristine killing. The format is cell-based, Sprague Dawley rats. The note with it: Rattus norvegicus, Neuron; vincristine (50 ng/mL), 48 hours, MTS; ±1 μM; read-out: IC50, protection of SCG neurons against Vincristine killing. The text has this: Similarly, vincristine and vinblastine are commonly used anti-tumour agents whose mode of action involve tubulin binding.

For `NS(=O)(=O)c1nn2cc(-c3ccccc3)nc2s1` [Compound 1, 6-Phenylimidazo[2,1-b]-1,3,4-thiadiazole-2-sulfonamide], the Erk activity entry with Erk is “dramatic increase”. In addition, the IC50 with SCG neurons [1] was determined as 5 µM; on CA II it was 0.25 µM; in the data set on SCG neurons [2] (Taxol™ (50 ng/mL), viability 48 hours later, MTS, read-out: IC(50), protection of SCG neurons from Taxol killing) it was 7 µM; with SCG neurons [2] (read-out: IC(50) against Taxol killing of SCGs) it was 7 µM; with SCG neurons [6] it was 22 µM; with SCG neurons [7], 10 µM. In addition, the “protection against Taxol™ induced killing” value in the data set with SCG neurons [2] (10 uM, Taxol™ 50 ng/mL, MTS) was 100%. Also, the “protection of H460 cells from Taxol™ induced apoptosis” value in data set [3] is “no protection; also recorded: did not protect”. Further, in the data set on Akt, the “activity of Akt” value is reported as “remained unchanged”. For the same molecule, the “protection of RG population / ERG conductance after ocular stroke” value in data set [4] (given post stroke, intravitreally then daily injections for 1 week) is on record as “protects the RG population allowing for normal conductance”. Besides, the “histology of the RG layer” value in data set [4] (intra-vitrial injection or SC) was “healthy RG layers”. For the same molecule, the “acute signs of toxicity” value in data set [5] is reported as “No acute signs of toxicity”.
